Values of other authors, collected in paper PMC4956231, “Molecular Mechanisms for Drug Hypersensitivity Induced by the Malaria Parasite’s Chloroquine Resistance Transporter” (PLoS Pathogens, 2016).

System: P. falciparum line 106/1^76N
Settings: 106/1^76N (76N-PfCRT^K1); IC50 in line divided by IC50 in drug-sensitive reference strain; cited from earlier work

CCN(CC)CCCC(C)Nc1ccnc2cc(Cl)ccc12 (stereo not shown) [CQ, chloroquine]
Drug susceptibility (In vitro resistance index): 8.60 ± 0.90
